According to patent US7473790B2 (Pfizer Inc., priority 2003, dated 2009):

Target: T1, HCV polymerase (Hepatitis C virus genotype 1b, UniProt P26663)
T1 construct: 2.5 pmoles (0.15 μg) HCV polymerase protein in a final volume of 75 μL
Experiment: HCV polymerase primer/template-directed transcription assay (32P-GTP incorporation, filter binding)
Format: biochemical
Settings: recombinant HCV polymerase; 30 minutes at 30° C.; concentration giving 50% inhibition of polymerase-directed transcription; read-out: IC50
Procedure, shortened: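 IC50s come from triplicate cpm, refit with an enzyme-concentration (30 nM) correction when under 200 nM. Reactions ran 30 min at 30° C in Tris pH 7.2 with MgCl2, 1 μM GTP spiked with α-32P-GTP, biotin-dG12 primer and poly(rC)300 template, with 1% DMSO. Incorporated label was collected on DE filtermats and counted.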

T1 sequence (P26663 2420-3010): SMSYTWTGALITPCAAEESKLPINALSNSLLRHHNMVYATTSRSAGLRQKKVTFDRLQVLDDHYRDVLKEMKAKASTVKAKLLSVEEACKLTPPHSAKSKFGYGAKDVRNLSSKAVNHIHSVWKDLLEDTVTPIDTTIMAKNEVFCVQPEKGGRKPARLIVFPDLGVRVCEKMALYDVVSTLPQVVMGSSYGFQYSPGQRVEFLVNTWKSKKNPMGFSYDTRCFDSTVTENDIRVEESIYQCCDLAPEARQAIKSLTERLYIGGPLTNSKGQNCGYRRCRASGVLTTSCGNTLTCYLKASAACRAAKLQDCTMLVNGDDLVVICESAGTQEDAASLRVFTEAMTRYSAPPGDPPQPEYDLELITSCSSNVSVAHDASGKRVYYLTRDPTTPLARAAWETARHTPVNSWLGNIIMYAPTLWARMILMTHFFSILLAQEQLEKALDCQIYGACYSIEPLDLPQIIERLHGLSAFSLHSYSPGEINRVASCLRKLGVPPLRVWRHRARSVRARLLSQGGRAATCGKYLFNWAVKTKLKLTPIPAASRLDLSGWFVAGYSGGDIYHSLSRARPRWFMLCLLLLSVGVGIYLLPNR

Structure (SMILES)	IC50
COc1ccc(CCC2(C3CCCC3)CC(O)=C(Sc3nc4cc(C)ccc4[nH]3)C(=O)O2)cc1Cl (centres unmarked) [C(53), 6-[2-(3-chloro-4-methoxyphenyl)ethyl]-6-cyclopentyl-4-hydroxy-3-[(5-methyl-1H-benzimidazol-2-yl)thio]-5,6-dihydro-2H-pyran-2-one]	67 nM
COc1ccc(CCC2(C3CCCC3)CC(O)=C(Sc3nc4c(C)cccc4[nH]3)C(=O)O2)cc1Cl (centres unmarked) [C(54), 6-[2-(3-chloro-4-methoxyphenyl)ethyl]-6-cyclopentyl-4-hydroxy-3-[(4-methyl-1H-benzimidazol-2-yl)thio]-5,6-dihydro-2H-pyran-2-one]	220 nM
COc1ccc(CCC2(C3CCCC3)CC(O)=C(Sc3nc4cc(C#N)ccc4[nH]3)C(=O)O2)cc1Cl (centres unmarked) [C(55), 2-({6-[2-(3-chloro-4-methoxyphenyl)ethyl]-6-cyclopentyl-4-hydroxy-2-oxo-5,6-dihydro-2H-pyran-3-yl}thio)-1H-benzimidazole-5-carbonitrile]	30 nM
COc1ccc(CCC2(C3CCCC3)CC(O)=C(Sc3ncccc3C#N)C(=O)O2)cc1Cl (centres unmarked) [C(56), 2-({6-[2-(3-chloro-4-methoxyphenyl)ethyl]-6-cyclopentyl-4-hydroxy-2-oxo-5,6-dihydro-2H-pyran-3-yl}thio)nicotinonitrile]	1300 nM
COc1ccc(CCC2(C3CCCC3)CC(O)=C(Sc3nc4cc(Cl)ccc4n3C)C(=O)O2)cc1Cl (centres unmarked) [C(57), 6-[2-(3-chloro-4-methoxyphenyl)ethyl]-3-[(5-chloro-1-methyl-1H-benzimidazol-2-yl)thio]-6-cyclopentyl-4-hydroxy-5,6-dihydro-2H-pyran-2-one]	2 nM
COc1ccc(CCC2(C3CCCC3)CC(O)=C(Sc3nc4c(O)cccc4[nH]3)C(=O)O2)cc1Cl (centres unmarked) [C(58), 6-[2-(3-chloro-4-methoxyphenyl)ethyl]-6-cyclopentyl-4-hydroxy-3-[(4-hydroxy-1H-benzimidazol-2-yl)thio]-5,6-dihydro-2H-pyran-2-one]	140 nM
CCOc1ccc2[nH]c(SC3=C(O)CC(CCc4ccc(OC)c(Cl)c4)(C4CCCC4)OC3=O)nc2c1 (centres unmarked) [C(59), 6-[2-(3-chloro-4-methoxyphenyl)ethyl]-6-cyclopentyl-3-[(5-ethoxy-1H-benzimidazol-2-yl)thio]-4-hydroxy-5,6-dihydro-2H-pyran-2-one]	200 nM
COc1ccc(CCC2(C3CCCC3)CC(O)=C(Sc3nc4cc(Cl)c(Cl)cc4n3C)C(=O)O2)cc1Cl (centres unmarked) [C(60), 6-[2-(3-chloro-4-methoxyphenyl)ethyl]-6-cyclopentyl-3-[(5,6-dichloro-1-methyl-1H-benzimidazol-2-yl)thio]-4-hydroxy-5,6-dihydro-2H-pyran-2-one]	15 nM
COc1ccc(CCC2(C3CCCC3)CC(O)=C(Sc3nc4cc(Cl)c(F)cc4[nH]3)C(=O)O2)cc1Cl (centres unmarked) [C(61), 3-[(5-chloro-6-fluoro-1H-benzimidazol-2-yl)thio]-6-[2-(3-chloro-4-methoxyphenyl)ethyl]-6-cyclopentyl-4-hydroxy-5,6-dihydro-2H-pyran-2-one]	140 nM
COc1ccc(CCC2(C3CCCC3)CC(O)=C(Sc3nc4cc(C(F)(F)F)cc(Cl)c4[nH]3)C(=O)O2)cc1Cl (centres unmarked) [C(62), 6-[2-(3-chloro-4-methoxyphenyl)ethyl]-3-{[7-chloro-5-(trifluoromethyl)-1H-benzimidazol-2-yl]thio}-6-cyclopentyl-4-hydroxy-5,6-dihydro-2H-pyran-2-one]	500 nM
COc1cc(OC)c(CCC2(C3CCCC3)CC(O)=C(Sc3nc4cc(Cl)ccc4n3C)C(=O)O2)cc1Cl (centres unmarked) [C(63), 6-[2-(5-chloro-2,4-dimethoxyphenyl)ethyl]-3-[(5-chloro-1-methyl-1H-benzimidazol-2-yl)thio]-6-cyclopentyl-4-hydroxy-5,6-dihydro-2H-pyran-2-one]	8 nM
COc1ccc(CCC2(C3CCCC3)CC(O)=C(Sc3nc4cncnc4[nH]3)C(=O)O2)cc1Cl (centres unmarked) [C(65), 6-[2-(3-chloro-4-methoxyphenyl)ethyl]-6-cyclopentyl-4-hydroxy-3-(9H-purin-8-ylthio)-5,6-dihydro-2H-pyran-2-one]	54 nM
COc1ccc(CCC2(C3CCCC3)CC(O)=C(Sc3ccc4ccccc4n3)C(=O)O2)cc1Cl (centres unmarked) [C(66), 6-[2-(3-chloro-4-methoxyphenyl)ethyl]-6-cyclopentyl-4-hydroxy-3-(quinolin-2-ylthio)-5,6-dihydro-2H-pyran-2-one]	900 nM
COc1ccc(CCC2(C3CCCC3)CC(O)=C(Sc3ncc4[nH]cnc4n3)C(=O)O2)cc1Cl (centres unmarked) [C(67), 6-[2-(3-chloro-4-methoxyphenyl)ethyl]-6-cyclopentyl-4-hydroxy-3-(7H-purin-2-ylthio)-5,6-dihydro-2H-pyran-2-one]	50 nM
COc1ccc(CCC2(C3CCCC3)CC(O)=C(Sc3ncnc4ccccc34)C(=O)O2)cc1Cl (centres unmarked) [C(68), 6-[2-(3-chloro-4-methoxyphenyl)ethyl]-6-cyclopentyl-4-hydroxy-3-(quinazolin-4-ylthio)-5,6-dihydro-2H-pyran-2-one]	200 nM
Cc1cc(C)n2nc(SC3=C(O)CC(CCc4ccc(C(F)F)c(F)c4)(C4CCCC4)OC3=O)nc2n1 (centres unmarked) [C(69), 6-Cyclopentyl-6-{2-[4-(difluoromethyl)-3-fluorophenyl]ethyl}-3-[(5,7-dimethyl[1,2,4]triazolo[1,5-a]pyrimidin-2-yl)thio]-4-hydroxy-5,6-dihydro-2H-pyran-2-one]	130 nM
COc1cc(OC)c(CCC2(C3CCCC3)CC(O)=C(Sc3nc4nc[nH]c(=O)c4[nH]3)C(=O)O2)cc1Cl (centres unmarked) [C(70), 8-({6-[2-(5-chloro-2,4-dimethoxyphenyl)ethyl]-6-cyclopentyl-4-hydroxy-2-oxo-5,6-dihydro-2H-pyran-3-yl}thio)-1,7-dihydro-6H-purin-6-one]	7.4 nM
COc1cc(OC)c(CCC2(C3CCCC3)CC(O)=C(Sc3n[nH]c(-c4ccccc4)n3)C(=O)O2)cc1Cl (centres unmarked) [C(71), 6-[2-(5-Chloro-2,4-dimethoxyphenyl)ethyl]-6-cyclopentyl-4-hydroxy-3-[(5-phenyl-1H-1,2,4-triazol-3-yl)thio]-5,6-dihydro-2H-pyran-2-one]	58 nM
COc1cc(OC)c(CCC2(C3CCCC3)CC(O)=C(Sc3nnnn3C)C(=O)O2)cc1Cl (centres unmarked) [C(72), 6-[2-(5-Chloro-2,4-dimethoxyphenyl)ethyl]-6-cyclopentyl-4-hydroxy-3-[(1-methyl-1H-tetrazol-5-yl)thio]-5,6-dihydro-2H-pyran-2-one]	78 nM
COc1cc(OC)c(CCC2(C3CCCC3)CC(O)=C(Sc3nc4cc(Cl)ccc4n3C(C)C)C(=O)O2)cc1Cl (centres unmarked) [C(73), 6-[2-(5-Chloro-2,4-dimethoxyphenyl)ethyl]-3-[(5-chloro-1-isopropyl-1H-benzimidazol-2-yl)thio]-6-cyclopentyl-4-hydroxy-5,6-dihydro-2H-pyran-2-one]	35 nM
COc1cc(OC)c(CCC2(C3CCCC3)CC(O)=C(Sc3nc(O)cc(C(F)(F)F)n3)C(=O)O2)cc1Cl (centres unmarked) [C(74), 6-[2-(5-chloro-2,4-dimethoxyphenyl)ethyl]-6-cyclopentyl-4-hydroxy-3-{[4-hydroxy-6-(trifluoromethyl)pyrimidin-2-yl]thio}-5,6-dihydro-2H-pyran-2-one]	99 nM
COc1cc(OC)c(CCC2(C3CCCC3)CC(O)=C(Sc3nnc(-c4cccnc4)[nH]3)C(=O)O2)cc1Cl (centres unmarked) [C(75), 6-[2-(5-chloro-2,4-dimethoxyphenyl)ethyl]-6-cyclopentyl-4-hydroxy-3-[(5-pyridin-3-yl-4H-1,2,4-triazol-3-yl)thio]-5,6-dihydro-2H-pyran-2-one]	44 nM
COc1cc(OC)c(CCC2(C3CCCC3)CC(O)=C(Sc3nc4cc(N)ccc4n3C)C(=O)O2)cc1Cl (centres unmarked) [C(76), 3-[(5-amino-1-methyl-1H-benzimidazol-2-yl)thio]-6-[2-(5-chloro-2,4-dimethoxyphenyl)ethyl]-6-cyclopentyl-4-hydroxy-5,6-dihydro-2H-pyran-2-one]	53 nM
COc1cc(OC)c(CCC2(C3CCCC3)CC(O)=C(Sc3ncc(-c4cccnc4)[nH]3)C(=O)O2)cc1Cl (centres unmarked) [C(77), 6-[2-(5-chloro-2,4-dimethoxyphenyl)ethyl]-6-6cyclopentyl-4-hydroxy-3-[(5-pyridin-3-yl-1H-imidazol-2-yl)thio]-5,6-2H-pyran-2-one]	62 nM
COc1cc(OC)c(CCC2(C3CCCC3)CC(O)=C(Sc3nccnc3C)C(=O)O2)cc1Cl (centres unmarked) [C(78), 6-[2-(5-chloro-2,4-dimethoxyphenyl)ethyl]-6-cyclopentyl-4-hydroxy-3[(3-methylpyrazin-2-yl)thio]-5,6-dihydro-2H-pyran-2-one]	47 nM
COc1cccc(-c2nnc(SC3=C(O)CC(CCc4cc(Cl)c(OC)cc4OC)(C4CCCC4)OC3=O)n2C)c1 (centres unmarked) [C(79), 6-[2-(5-chloro-2,4-dimethoxyphenyl)ethyl]-6-cyclopentyl-4-hydroxy-3-{[5-(3-methoxyphenyl)-4-methyl-4H-1,2,4-triazol-3-yl]thio}-5,6-dihydro-2H-pyran-2-one]	63 nM
COc1cc(OC)c(CCC2(C3CCCC3)CC(O)=C(Sc3nnc(O)n3C(C)C)C(=O)O2)cc1Cl (centres unmarked) [C(80), 6-[2-(5-chloro-2,4-dimethoxyphenyl)ethyl]-6-cyclopentyl-4-hydroxy-3-[(5-hydroxy-4-isopropyl-4H-1,2,4-triazol-3-yl)thio]-5,6-dihydro-2H-pyran-2-one]	31 nM
COc1cc(OC)c(CCC2(C3CCCC3)CC(O)=C(Sc3nnc(-c4ccc(O)cc4)[nH]3)C(=O)O2)cc1Cl (centres unmarked) [C(81), 6-[2-(5-chlor-2,4-dimethoxyphenyl)ethyl]-6-cyclopentyl-4-hydroxy-3-{[5-(4-hydroxyphenyl)-4H-1,2,4-triazol-3-yl]thio}-5,6-dihydro-2H-pyran-2-one]	14 nM
COc1cc(OC)c(CCC2(C3CCCC3)CC(O)=C(Sc3nc4nc(C)ccn4n3)C(=O)O2)cc1Cl (centres unmarked) [C(82), 6-[2-(5-chloro-2,4-dimethoxyphenyl)ethyl]-6-cyclopentyl-4-hydroxy-3-[(5-methyl[1,2,4]triazolo[1,5-a]pyrimidin-2-yl)thio]-5,6-dihydro-2H-pyran-2-one]	27 nM
